Read-outs that look alike come from different tables or passages of the source.

The Kd is the free concentration of one partner at which half of the binding sites on the other are occupied at equilibrium, for simple one-to-one binding. A lower Kd goes with a tighter complex. In general, EC50 refers to the midpoint of the concentration-response curve. A word on the IC50: it is the concentration that gives 50% inhibition.

The target of one assay is BRD2-BD1 (Homo sapiens (Human), UniProt P25440). Put plainly: surface plasmon resonance analysis of binding. Particulars: SPR, BRD2(1) (printed MRD2(1)). On the procedure:
(§1) a. Surface Plasmon Resonance (Biacore) Analysis of Binding to Brd2-BD1 and Brd2-BD2
(§2) SPR experiments were conducted at 15° C. using a SensiQ Pioneer optical biosensor (SensiQ Technologies). Poly-His tagged BRD2 constructs were immobilized on polycarboxylate-coated gold chips preimmobilized with nitrilotriacetic acid (His-Cap chips; SensiQ Technologies) by capture-coupling, a hybrid method of capture and amine coupling chemistry (Ref. A). The His-Cap chip was preconditioned and charged with Ni^2+ in equilibration buffer (10 mM HEPES pH 7.4, 150 mM NaCl, 50 μM EDTA, 0.005% Tween20) at a flow rate of 10 μL/min. The chip was washed with three 60 s injections of regeneration buffer (10 mM HEPES pH 8.3, 150 mM NaCl, 350 mM EDTA, 0.05% Tween20) and one 60 s injection of equilibration buffer and was charged with a 60 s injection of 500 mM NiCl2 in equilibration buffer, which added ˜55 RU of Ni^2+ per channel. […]
(§3) A series of buffer-only (blank) injections was included throughout the experiment to account for instrumental noise. The data were processed, double-referenced, solvent corrected and analyzed using the software package Qdat (version 2.5.3.5, SensiQ Technologies) (Ref B). The kinetic rate constants were determined by globally fitting the data to a 1:1 interaction model. Equilibrium dissociation constants (KD) were calculated as the quotient kd/ka.
A general note: SPR reads the build-up and loss of mass on a sensor chip optically.

A further assay deals with BRD2-BD2 (Homo sapiens (Human), UniProt P25440). As to the kind of experiment: surface plasmon resonance analysis of binding. The conditions noted are these: SPR, BRD2(2). On the procedure:
as §1, §2, §3

Assay [1] deals with c-Myc expression in HDMB03 cells. As to the kind of experiment: c-Myc expression inhibition, high content microscopy (HCM). The format is cell-based, human. Particulars: Homo sapiens, read-out: EC50 (μM) Myc-inhibition.
Protocol: 3000 human G3 medulloblastoma or 2000 mouse SHH medulloblastoma cells per well were plated into 384-well plates (6007710, Perkin Elmer) in 30 μL of supplemented neurobasal medium using a Wellmate automated dispenser (Thermo Matrix). After 24 hours, 125 nl of compound was transferred via pin tool, resulting in a final drug concentration from 2 nM to 40 μM. 72 hours after adding the drug, the plates were fixed with 4% formaldehyde for 20 min. After fixation the cells were then washed 3 times with 75 μl of PBS. The cells were then permeabilized with 0.1% Triton-X 100 for 15 minutes at 25° C. and blocked using 1% BSA in PBS for 1 hour at 25° C. The primary antibody against c-Myc Ab (#9402, Cell Signaling) at a 1:400 dilution was diluted in 1% BSA in PBS. This mixture was added to each well before incubation overnight at 4° C. Each well was then washed 3 times with PBS using a Biotek ELX405 Select plate washer, and incubated for 1 hour at 25° C. with a solution containing 1/400 goat α-rabbit-Alexa-488 (4412S, Cell Signaling) and 1 μM Hoechst 33342 to detect nuclear material (H3570, Molecular Probes). Two images were captured of each well at 10× using a GE Healthcare InCell 6000 at 405 nM to detect nuclear staining and 488 nM to detect c-Myc. All data were analyzed using the multi-target analysis algorithm of the GE InCell Analyzer Workstation software. The number of nuclear objects in each well, as well as all nuclear measurements, was determined through nuclear masks over the Hoechst staining. C-Myc staining was then measured using top-hat segmentation in the entire cell.
A further assay deals with BRD2(1) (Homo sapiens (Human), UniProt P25440). As to the kind of experiment: BROMOscan KD determination. In kind it is binding. Particulars: Table 10. Put shortly: (§4)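 KD figures derive from BROMOscan follow-up determinations. The panel-wide data are single-concentration (1 μM) competitive binding results versus control across ~42 bromodomains.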
Chain of BRD2(1) (P25440 74-180): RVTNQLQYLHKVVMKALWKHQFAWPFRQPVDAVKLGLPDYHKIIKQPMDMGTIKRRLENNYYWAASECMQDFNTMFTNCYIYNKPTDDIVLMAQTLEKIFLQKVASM
A further assay concerns the target BRD2(2) (Homo sapiens (Human), UniProt P25440). Put plainly: BROMOscan KD determination. In kind it is binding. In a few lines: as §4
For another assay, the target named is BRDT(1) (Homo sapiens (Human), UniProt Q58F21). Put plainly: BROMOscan KD determination. In kind it is binding. Particulars: Table 10. Put shortly:
as §4

A further assay addresses BRDT(2) (Homo sapiens (Human), UniProt Q58F21). As to the kind of experiment: BROMOscan KD determination. In kind it is binding. In a few lines: as §4
In another assay the target is BRD3(1) (Homo sapiens (Human), UniProt Q15059). Put plainly: BROMOscan KD determination. The format is binding. The conditions noted are these: Table 10. From the text: (§5) DiscoverX® can screen compounds against all ˜42 bromodomains (a service called BROMOscan) and perform follow-up KD determination. This service is considered the industrial standard for bromodomain inhibitor comparisons.
Chain of BRD3(1) (Q15059 34-140): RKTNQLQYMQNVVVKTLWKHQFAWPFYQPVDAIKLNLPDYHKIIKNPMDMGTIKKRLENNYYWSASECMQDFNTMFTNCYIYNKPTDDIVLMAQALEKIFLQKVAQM

In another assay the target is BRD3(2) (Homo sapiens (Human), UniProt Q15059). Put plainly: BROMOscan KD determination. The format is binding.
Chain of BRD3(2) (Q15059 306-415): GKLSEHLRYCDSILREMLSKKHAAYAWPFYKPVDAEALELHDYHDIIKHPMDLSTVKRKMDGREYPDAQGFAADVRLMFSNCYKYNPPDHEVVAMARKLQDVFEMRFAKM
From the text: as §5

The target in a further assay is BRD4(1) (Homo sapiens (Human), UniProt O60885). Put plainly: BROMOscan KD determination. In kind it is binding. The conditions noted are these: Table 10.
From the text: as §5

The next assay concerns the target BRD4(2) (Homo sapiens (Human), UniProt O60885). As to the kind of experiment: BROMOscan KD determination. The format is binding.
From the text: as §5

Assay [2] relates to neural crest tumor cell lines. As to the kind of experiment: activity versus neural crest tumor cell lines. The format is cell-based. The conditions noted are these: several neural crest tumor cell lines; read-out: IC50 ranges.

Chain of BRD2(2) (P25440 344-453): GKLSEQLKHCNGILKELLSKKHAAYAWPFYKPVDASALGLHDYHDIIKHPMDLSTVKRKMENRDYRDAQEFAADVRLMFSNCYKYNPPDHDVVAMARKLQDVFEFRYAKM
Chain of BRD2-BD1 (P25440 74-180): as the sequence (P25440 74-180) above
Chain of BRD2-BD2 (P25440 344-453): as the sequence (P25440 344-453) above

In the case of `COC(=O)c1ccc(N[C@@H]2C[C@H](C)N(C(C)=O)c3ccc(-c4cccc(NC(C)=O)c4)cc32)cc1` [compound 4], the Kd on BRD2-BD1 was 132 nM; on BRD2-BD2 it was 13 nM; on BRD2(1) it was 24 nM; on BRD2(2) (BROMOscan, Table 10), 0.65 nM; on BRDT(1), 4.9 nM; on BRDT(2) (BROMOscan, Table 10), 4.9 nM. Also, the dissociation constant Kd on BRD3(1) stood at 0.72 nM; on BRD3(2) (BROMOscan, Table 10), 0.39 nM; on BRD4(1), 27 nM; at BRD4(2) (BROMOscan, Table 10) it was 0.42 nM. Moreover, the EC50 was 0.03 µM in assay [1] (HD-MB03, Table 5); 1.3 µM in assay [1] (HD-MB03, Table 7); 1.3 µM in assay [1] (HD-MB03, Table 9, c-Myc expression inhibition in HDMB03 cells). The “[2(1)/2(2)]” value on BRD2(2) (BROMOscan KD ratio) came out at 36.9. Further, the “T(1)/T(2)” value on BRDT(2) (BROMOscan KD ratio) stood at 1.0. For the same compound, at BRD3(2) (BROMOscan KD ratio), the “3(1)/3(2)” value worked out at 1.8. Also, the “4(1)/4(2)” value at BRD4(2) (BROMOscan KD ratio) came out at 64.3. Besides, the IC50 in [2] lay within 50 to 200 nM.

The values above are taken from US11028051B2, “Tetrahydroquinoline-based bromodomain inhibitors” (St. Jude Children's Research Hospital, priority 2016, dated 2021).
